Test system: S. aureus
Test: MIC, CLSI microdilution
Assay type: cell-based
Settings: 2% solution serially diluted

## [H]/N=C(\N/C(=N/[H])NCCCCCCNC(=N)NC(=N)Nc1ccc(Cl)cc1)Nc1ccc(Cl)cc1 [Chlorhexidine, chlorhexidine gluconate]
  Chlorhexidine MIC: 19.6 μg/ml chlorhexidine

From patent US12673140B2, “Bladder, ureter, kidney, urethra, prostate and catheter anti-microbial, and biofilm prevention, reduction and treatment” (UHI, LLC, priority 2019, dated 2026)
